Reference: US6906205B2, “Spiro and dispiro 1,2,4-trioxolane antimalarials” (Medicines for Malaria Venture MMV, priority 2002, dated 2005)
≈ marks a conversion by molar mass, not a printed value.

Columns and labels:
[1] = test system: P. falciparum NF54 strain (sensitive to standard antimalarials); assay: semiautomated microdilution assay, [3H]-hypoxanthine incorporation, NF54 strain; type: cell-based, Plasmodium falciparum; conditions: NF54 strain, 72 h incubation
Procedure, shortened: (§1)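 Logit regression analysis was used to estimate IC50 values. Parasites were intraerythrocytic forms from asynchronous stock cultures, and compounds were tested by semiautomated microdilution.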

[2] = test system: ANKA strain of P. berghei; assay: single dose STI in vivo screen in infected mice; design: species or system Plasmodium berghei; conditions: for Activity (%) po / Activity (%) sc / Activity (%) SSVpo: percent reduction in parasitemia day 3 post-infection, mice; for Activity (%) po / Survival (days) po: single 10 mg/kg po in 3% ethanol and 7% Tween 80; for Activity (%) sc / Survival (days) sc: single 10 mg/kg sc in 3% ethanol and 7% Tween 80; for Survival (days) po / Survival (days) sc / Survival (days) SSVpo: untreated control 5.6 ± 0.3; for Activity (%) SSVpo: single po dose in standard suspending vehicle (SSV); for Survival (days) SSVpo: single po dose in SSV
Procedure, shortened: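 Groups of 3-5 Moro SPF or NMRI mice infected with the ANKA strain of P. berghei received a single dose of trioxolane on day one post-infection. The compound was given in 3% ethanol and 7% Tween 80 or in SSV (0.5% w/v CMC, 0.5% v/v benzyl alcohol, 0.4% v/v Tween 80, 0.9% w/v sodium chloride in water). Antimalarial activity was scored as percent reduction in parasitemia on day three and as survival time versus untreated controls. Survival to day 30 counted as cure.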

[3] = test system: P. falciparum K1 strain (Thailand resistant to chloroquine); assay: semiautomated microdilution assay, [3H]-hypoxanthine incorporation, K1 strain; type: cell-based, Plasmodium falciparum; conditions: K1 strain, 72 h incubation
Procedure, shortened: as §1

[4] = test system: Schistosoma mansoni adult schistosomes (49-day-old); assay: effect on adult schistosomes (49-day-old) in mice; type: in vivo; conditions: for % reduction of adult worms growth at day 49 after per os application of 400 mg/kg, TWR (%) / adult worms at day 49, per os 400 mg/kg, DEAD WORM (%): single 400 mg/kg per os
Experimental: Mice were infected with 100 Schistosoma mansoni cercariae […]. Each group was treated per os with OZ compounds at single doses of 200, 400, and 600 mg/kg. […] All groups were killed 4 weeks after treatment and the liver and intestine were removed and separated. The liver and intestine were compressed and alive male and female worms could be seen and counted.

[5] = test system: Schistosoma mansoni 21-day-old schistosomules; assay: effect on 21-day-old schistosomules in mice; type: in vivo; conditions: single 200 mg/kg per os, female mice
Experimental: All groups were killed 4 weeks after treatment and the liver and intestine were removed and separated. The liver and intestine were compressed and alive male and female worms could be seen and counted. The effect of the compounds was evaluated by mean total and female worm burden.

| Structure (SMILES) | IC50 (ng/ml) NF54 [1] [ng/mL] | Activity (%) po [2] | Activity (%) sc [2] | Survival (days) po [2] | Survival (days) sc [2] | IC50 (ng/ml) K1 [3] [ng/mL] | % reduction of adult worms growth at day 49 after per os application of 400 mg/kg, TWR (%) [4] | adult worms at day 49, per os 400 mg/kg, DEAD WORM (%) [4] | % reduction of adult worms growth at day 49 after per os application of 600 mg/kg, TWR (%) ([4]; single 600 mg/kg per os) | adult worms at day 49, per os 600 mg/kg, DEAD WORM (%) ([4]; single 600 mg/kg per os) | % reduction of schistosomule growth at day 21 after per os application of 200 mg/kg, FWR (%) [5] [%] | % reduction of schistosomule growth at day 21 after per os application of 200 mg/kg, TWR (%) [5] [%] | Activity (%) SSVpo [2] [%] | Survival (days) SSVpo [2] [days] | Activity (%) po ([2]; 10 mg/kg) [%] | Activity (%) sc ([2]; 10 mg/kg) [%] | Survival (days) po ([2]; 10 mg/kg) [days] | Survival (days) sc ([2]; 10 mg/kg) [days] |
| --- | --- | --- | --- | --- | --- | --- | --- | --- | --- | --- | --- | --- | --- | --- | --- | --- | --- | --- |
| C1COC2(CCC3(CC2)OOC2(O3)C3CC4CC(C3)CC2C4)O1 (centres unmarked) [OZ10] | 0.67 (≈ 0.00208 µM) | 99.6% | 99.98% | 8.9 days | 10.5 days | 0.40 (≈ 0.00124 µM) | 28% | 13% | 21 | 23 | 73 | 66 |  |  |  |  |  |  |
| O=C1C2C3CC4C5C3C1C5C1(OOC3(O1)C1CC5CC(C1)CC3C5)C42 (centres unmarked) [OZ14] | > 100 | 23% | 96% | 6.0 days | 7.7 days | 91 (≈ 0.267 µM) | 0/0% | 0/0% |  |  | 0 | 7 |  |  |  |  |  |  |
| CON=C1CCC2(CC1)OOC1(O2)C2CC3CC(C2)CC1C3 (centres unmarked) [OZ15] | 1.0 (≈ 0.00325 µM) | 99.8% | 99.9% | 7.4 days | 8.2 days | 0.60 (≈ 0.00195 µM) | 0% | 10% |  |  | 70 | 63 | 88 | 6.8 |  |  |  |  |
| CC(C)(C)C1CCC2(CC1)OOC1(O2)C2CC3CC(C2)CC1C3 (centres unmarked) [OZ18] | 84 (≈ 0.262 µM) | 0/NA/0% | 0/NA/0% | 5.0 days | 5.3 days | 63 (≈ 0.197 µM) | 0/0% | 0/0% |  |  | 9 | 12 |  |  |  |  |  |  |
| O=C1CCC2(CC1)OOC1(CCCCCCCCCCC1)O2 [OZ21] | 25 (≈ 0.0805 µM) | 0/NA/0% | 0/NA/0% | 5.0 days | 6.0 days | 14 (≈ 0.0451 µM) | 0/0% | 0/0% |  |  | 20 | 18 |  |  |  |  |  |  |
| CCOC(=O)N1CCC2(CC1)OOC1(O2)C2CC3CC(C2)CC1C3 (centres unmarked) [OZ23] | 0.57 (≈ 0.00169 µM) | 99.5% | 99.9% | 7.7 days | 8.9 days | 0.29 (≈ 0.000859 µM) | 0% | 4% |  |  | 84 | 90 | 99.34 | 7.0 |  |  |  |  |
| O=C(c1ccccc1)N1CCC2(CC1)OOC1(O2)C2CC3CC(C2)CC1C3 (centres unmarked) [OZ24] | 0.58 (≈ 0.00157 µM) | 93% | 99.9% | 7.0 days | 8.7 days | 0.35 (≈ 0.000947 µM) | 21% | 0% |  |  | 61 | 65 | 66 | 6.8 |  |  |  |  |
| CCCC1CCC2(CC1)OOC1(O2)C2CC3CC(C2)CC1C3 (centres unmarked) [OZ25] | 2.1 (≈ 0.00685 µM) | 99.9% | 99.97% | 8.4 days | 16.5 days | 1.1 (≈ 0.00359 µM) | 46% | 34% |  |  | 84 | 86 | 96 | 7.2 |  |  |  |  |
| O=[N+]([O-])c1ccc(NN=C2CCC3(CC2)OOC2(O3)C3CC4CC(C3)CC2C4)c([N+](=O)[O-])c1 (centres unmarked) [OZ29] | 13 (≈ 0.0284 µM) | 0/NA/0% | 0/NA/0% | 5.0/NA/5.0 days | 5.0/NA/5.0 days | 9.7 (≈ 0.0212 µM) | 0/0% | 0/0% |  |  | 20 | 28 |  |  |  |  |  |  |
| CC1(C)COC2(CCC3(CC2)OOC2(CC(C)(C)CC(C)(C)C2)O3)OC1 [OZ36] | 62 (≈ 0.168 µM) | 0/NA/0% | 0/NA/0% | 5.7/NA/5.7 days | 5.7/NA/5.7 days | 24 (≈ 0.0651 µM) | 0/0% | 0/0% |  |  | 12 | 16 |  |  |  |  |  |  |
| O=C(O)C1CCC2(CC1)OOC1(O2)C2CC3CC(C2)CC1C3 (centres unmarked) [OZ71] | 3.7 (≈ 0.012 µM) |  |  |  |  | 4.5 (≈ 0.0146 µM) | 0% | 16% |  |  | 85 | 91 | 98 | 6.7 | 98 | 97 | 7.3 | 8.3 |
